Measurements from patent US20110293746A1, “Modulation of Gsk-3Beta and Method of Treating Proliferative Disorders” (Agency For Science, Technology and Research, priority 2004, published 2011).
Entries after “also recorded” stand apart in the source; their conditions may differ.

How the values were obtained:
[1] = test system: p53 and p53 targets in HCT116 cells; experiment: Immunoblot analyses of p53 and p53 targets; format: cell-based, Human
Procedure: (§1) Western blotting, immunoprecipitation and microarray analysis: Cells were scraped, collected and lysed as described previously (Yu, Q., et al. Cancer Res, 62: 5743-5748, 2002). Briefly, cells were lysed with cell lysis buffer (0.3% NP40, 1 mM EDTA, 50 mM Tris-HCl (pH 7.4), 2 mM EGTA, 1% Triton X-100, […], 25 mM NaF, 1 mM Na3VO4, 2 mM AEBSF, 5 μg/ml aprotinin, 1 μg/ml leupeptin) for 30 minutes on ice, and the lysates were clarified by centrifugation at 12,000×g for 15 minutes at 4° C. Protein concentration was quantified (Bio-Rad, Hercules, Calif.) and protein samples (50 μg) were separated by SDS/PAGE and transferred onto Immobilon™ membranes (Millipore, Bedford, Mass.). Antibodies against the following proteins were used: p53 (DO-1), p21, PARP, GSK-α/β, α-Tubulin, and β-actin (Santa Cruz Biotechnology), Puma (Ab-1, Oncogene), Bax (Sigma), phosphor-(Ser9/21)-GSK-3α/β and Caspase-9 (Cell Signaling Technologies), phosphor-(Tyr216/279)-GSK-3α/β (Upstate Biotechnologies), cytochrome c (BD PharMingen). To detect Bax conformational change, cells were lysed in 1% Chaps buffer and the soluble fraction was immunoprecipitated with anti-Bax monoclonal antibody (6A7, BD, PharMingen), followed by immunoblotting with anti-Bax polyclonal antibody. Microarray analysis was performed as described (Kho, P. S., et al. J Biol Chem, 279: 21183-21192, 2004).

[2] = test system: HCT116 cells expressing p53 shRNA; experiment: FACS apoptosis in HCT116 cells expressing p53 shRNA; format: cell-based, Human; details: LY2119301 and ADR (1 μM) or 5-FU (100 μM), 24 h, p53 knockdown
Procedure: (§2) FACS analysis of DNA content and caspase-3 activity: Cells were harvested and fixed in 70% ethanol. Fixed cells were stained with propidium iodide (50 μg/ml) after treatment with RNase (100 μg/ml). The stained cells were analyzed for DNA content by fluorescence-activated cell sorting (FACS) in a FACScalibur™ (Becton Dickinson Instrument, San Jose, Calif.). Cell cycle fractions were quantified using the CellQues™ software (Becton Dickinson). To measure caspase-3 activity, cells were fixed with Cytofix/Cytoperm™ solution (BD PharMingen) as instructed, and then stained with FITC-conjugated rabbit anti-active caspase-3 monoclonal antibody (BD PharMingen). Quantification of cells positive for the caspase-3 detection was performed by flow cytometry.
RNA interference: To generate knockdown vectors for p53, the following 19-nucleotide sequence was used: […] [SEQ ID NO: 1]. The oligonucleotide pair was cloned into the retroviral expression vector pSIREN-RetroQ™ (BD Bioscienses) according to the manufacturer's instructions. Briefly, 293 cells were transfected with the p53 shRNA construct for 48 h to produce viral particles. To establish p53 shRNA stable transfection clones, HCT116 cells were infected with retroviral stocks in the presence of 5 μg/ml polybrene. Infected cells were subject to puromycin selection at 2 μg/ml. […]

HCT116 cells = experiment: FACS analysis of DNA content (sub-G1 apoptotic fraction); format: cell-based, Human
Procedure: (§3) Cell culture and drug treatments: Human colon cancer cell line HCT116 and its derived isogenic p53^−/−, Puma^−/−, Bax^−/− and p53-inducible DLD cell lines were kindly provided by Dr. Bert Vogelstein (Johns Hopkins University, MD). RKO and RKO/E6 cells were from ATCC. Cells were cultured in DMEM containing 10% FBS. All culture reagents and media were from Invitrogen. 5-Fluorouracil, Adriamycin, etoposide and lithium chloride were purchased from Sigma. GSK-3β specific small molecule inhibitor LY2119301 was a gift from Eli Lilly (Indianapolis) and SB-216763, SB-415283 were obtained from BIOMOL.
as §2

HCT116 p53 −/− cells = experiment: as above; format: cell-based, Human
Procedure: as §3, §2

p53 in HCT116 cells = experiment: p53 accumulation in cytosol and mitochondria (subcellular fractionation, Western blot); format: cell-based, Human; details: in the presence of LY2119301, etoposide 24 h
Procedure: as §1
(§4) Subcellular fractionation: Cells were lysed in mitochondria lysis buffer (210 mM Mannitol, 70 mM Sucrose, 10 mM Hepes (pH, 7.4), 1 mM EDTA, protease inhibitor cocktail) with a Dounce homogenizer and subjected to centrifugation at 1000×g to pellet the nuclei. Post-nuclear supernatant was centrifuged at 10,000×g to pellet the mitochondria-enriched heavy membrane fraction, and the resulting supernatant was further centrifuged to obtain cytosolic fraction. Total proteins (30 μg) from cytosolic or mitochondrial fractions were subjected to immunoblot analysis.

[3] = test system: p53-responsive genes in HCT116; experiment: Microarray analysis of p53-responsive genes; format: cell-based, Human; details: concurrent treatment with ADR and LY2119301
Procedure: as §1

p53-inducible DLD1 cells = experiment: Apoptosis and immunoblot in tetracycline-inducible p53 expressing cells; format: cell-based, Human
Procedure: as §3, §1, §2

Bax = Bax conformational activation (IP with 6A7 antibody, Western blot); format: cell-based, Human; details: co-treatment with LY2119301 and ADR, etoposide or 5-FU, 24 h
Procedure: as §1

GSK-3α = molecular target: T1, GSK-3α (Homo sapiens, UniProt P49840); experiment: Immunoblot analysis of GSK-3 phosphorylation status in HCT116 cells; format: cell-based
T1 construct: endogenous in cells; host or cells: HCT116
T1 sequence (P49840 whole entry): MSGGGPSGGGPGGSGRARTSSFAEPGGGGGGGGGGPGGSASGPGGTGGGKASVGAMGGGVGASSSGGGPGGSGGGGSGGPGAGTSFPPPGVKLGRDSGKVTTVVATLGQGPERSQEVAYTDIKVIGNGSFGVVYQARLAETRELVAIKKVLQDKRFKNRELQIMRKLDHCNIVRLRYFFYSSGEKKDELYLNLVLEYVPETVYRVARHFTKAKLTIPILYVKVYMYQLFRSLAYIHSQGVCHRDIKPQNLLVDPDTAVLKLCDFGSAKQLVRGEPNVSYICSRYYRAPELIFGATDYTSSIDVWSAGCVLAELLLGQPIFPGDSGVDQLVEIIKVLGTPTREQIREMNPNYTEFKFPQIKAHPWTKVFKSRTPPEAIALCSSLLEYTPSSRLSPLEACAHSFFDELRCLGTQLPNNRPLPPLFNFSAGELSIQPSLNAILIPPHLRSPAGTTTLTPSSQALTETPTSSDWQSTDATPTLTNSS
Procedure: (§5) Protein concentration was quantified (Bio-Rad, Hercules, Calif.) and protein samples (50 μg) were separated by SDS/PAGE and transferred onto Immobilon™ membranes (Millipore, Bedford, Mass.). […] To detect Bax conformational change, cells were lysed in 1% Chaps buffer and the soluble fraction was immunoprecipitated with anti-Bax monoclonal antibody (6A7, BD, PharMingen), followed by immunoblotting with anti-Bax polyclonal antibody.
as §4

GSK-3β = molecular target: T2, GSK-3β (Homo sapiens, UniProt P49841); experiment: as above; format: cell-based
T2 construct: endogenous in cells; host or cells: HCT116
T2 sequence (P49841 whole entry): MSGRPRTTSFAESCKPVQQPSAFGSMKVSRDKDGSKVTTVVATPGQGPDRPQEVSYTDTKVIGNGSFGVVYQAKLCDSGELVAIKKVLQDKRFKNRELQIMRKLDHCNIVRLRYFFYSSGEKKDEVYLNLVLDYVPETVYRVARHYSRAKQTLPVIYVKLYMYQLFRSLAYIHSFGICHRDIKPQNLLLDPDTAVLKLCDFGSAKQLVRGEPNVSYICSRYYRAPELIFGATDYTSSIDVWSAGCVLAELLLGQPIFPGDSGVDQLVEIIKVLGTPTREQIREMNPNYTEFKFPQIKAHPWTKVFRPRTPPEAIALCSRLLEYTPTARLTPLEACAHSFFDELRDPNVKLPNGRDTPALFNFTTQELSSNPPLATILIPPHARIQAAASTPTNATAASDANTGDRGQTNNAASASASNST
Procedure: as §5, §4

[4] = with ADR, etoposide or 5-FU, HCT116 (LY2119301 also RKO)
[5] = nuclear and cytoplasmic fractions

## CN1CCN(c2ccc(NCCNc3ccc([N+](=O)[O-])c(N)n3)nc2-c2ccc(Cl)cc2Cl)C(=O)C1 [LY2119301]
[1]; HCT116 and RKO
  Bax levels: no effect
[1]; cells treated with genotoxic agents
  cleavage of PARP: remarkably increased
[1]; [4]
  p53-mediated p21 induction: prevents; also recorded: impaired
  p53 accumulation / stability in response to DNA damage: prevents; also recorded: markedly and consistently impaired
[1]; with chemotherapeutic agents, HCT116 and RKO
  induction of Puma: impaired
[2]
  apoptosis induction by co-treatment vs control vector cells: significantly reduced
HCT116 cells; 5-FU in presence of LY2119301
  5-FU-induced apoptosis: greatly sensitized
HCT116 cells; LY2119301 with etoposide (10 μM) or camptothecin (100 nM), 24 h
  apoptosis in response to other DNA damaging agents: triggered p53-dependent apoptosis; also recorded: robust apoptosis
HCT116 cells; co-treatment ADR (1 μM) and LY2119301 (5 μM), 24 h
  cell death, sub-G1 population: ~59%
HCT116 cells; dose-effect experiments, 5-FU in presence of LY2119301
  increase in apoptosis induction by 5-FU: 10 fold
HCT116 cells; with ADR
  concentration able to induce apoptosis in ADR-treated cells (as low as): 250 nM
HCT116 p53 −/− cells; 5-FU in presence of LY2119301, cells null for p53
  5-FU-induced apoptosis: no increased apoptosis
HCT116 p53 −/− cells; ADR and LY2119301 co-treatment, 24 h, p53 knockout
  synergistic induction of cell death: not seen
p53 in HCT116 cells
  etoposide-induced p53 accumulation in cytosol: similarly decreased
  etoposide-induced p53 accumulation in mitochondria: similarly decreased
[3]
  induction of p53 responsive genes: uniformly attenuated
p53-inducible DLD1 cells; IP-Western, p53 induction plus LY2119301
  Bax activation: similarly seen
p53-inducible DLD1 cells; Western blot
  ectopically expressed p53 protein levels: no effect
  p53 dependent transcription of p21: no effect
p53-inducible DLD1 cells; in the presence of LY2119301
  apoptosis induced by enforced p53 expression: significantly increased
Bax
  levels of conformationally active Bax: dramatically increased
GSK-3α; HCT116 whole lysate immunoblot
  activating tyrosine phosphorylation on GSK-3α: almost completely blocked
  inhibitory serine 21 phosphorylation on GSK-3α: much lesser extent
GSK-3α; [5]
  tyrosine phosphorylation of GSK-3α: blocked
GSK-3β; HCT116 whole lysate immunoblot
  activating tyrosine phosphorylation on GSK-3β: almost completely blocked
  inhibitory serine 9 phosphorylation on GSK-3β: increase
GSK-3β; [5]
  tyrosine phosphorylation of GSK-3β: blocked
GSK-3β; nuclear and cytoplasmic fractions, with or without DNA damage
  serine phosphorylation on GSK-3β in cytoplasm and nucleus: triggered
